# In patent US20250134952A1, “METHODS FOR IMPROVING THE EFFICACY OF HDAC INHIBITOR THERAPY AND PREDICTING THE RESPONSE TO TREATMENT WITH HDAC INHIBITOR” (INSTITUT NATIONAL DE LA SANTÉ ET DE LA RECHERCHE MÉDICALE, priority 2021, published 2025):
# Test system: MCF7shctrl and MCF7shTau subclones
# Experiment: Apoptosis by flow cytometry of PI-positive and Annexin-V-positive cells
# Assay type: cell-based, human
# Details: 100 nM TSA, 48 h
# Procedure: FIG. 1: Tau inhibition increases MCF7 breast cancer cell line sensitivity to TSA. (A) Tau protein expression in MCF7, MCF7shctrl and shTau were quantify by Elisa. (B) Effect of 100 nM TSA (48 h) on cell death in the MCF7shctrl and MCF7shTau subclones. Cell death was determined by staining and flow cytometric analysis as described in the materials and methods. (C) Effect of 100 nM TSA (48 h) on apoptosis in the MCF7shctrl and MCF7shTau subclones. Apoptosis was determined by flow cytometric analysis of the PI-positive and Annexin-V-positive cells as described in the materials and methods. (D) Cell cycle distribution was determined by FACS analysis of combined propidium iodide and EdU staining in MCF7shctrl and MCF7shTau in the absence or presence 100 nM TSA, 48 h. Data are mean±SD **P<0.01***P<0.001. […]
# SH-SY5Y human neuroblastoma cells expressing Tau4R tagged with the streptavidin-binding peptide (SBP) (referred as SH-SY5Y-(SBP)Tau4R) (Chauderlier et al., 2018), SH-SY5Y-Tet-on-Tau4R, Hela cells, MCF7 and MDA-MB-231 were cultured in Dulbecco's Modified Eagle's Medium with 10% fetal bovine serum, 2 mM L-glutamine and 50 U/ml penicillin/streptomycin (Gibco) at 37° C. in 5% CO2 humidified air. […] For stable clones, luciferase activities were measured using the luciferase assay system (Promega) and normalized against protein concentration. […]
smiles,measurement,setting,value
"CC(/C=C/C(=O)NO)=C\[C@@H](C)C(=O)c1ccc(N(C)C)cc1 [TSA, 2,4-Heptadienamide, 7-[4-(dimethylamino)phenyl]-N-hydroxy-4,6-dimethyl-7-oxo-, (2E,4E,6R)-]",apoptosis,Tau-knockdown cells (MCF7shTau),48%
same,apoptosis,sh-ctrl cells (MCF7shctrl),30%
